The values that follow come from the kinase profiling compilation of Christmann-Franck et al. (2016).

The structures appear in SMILES notation.

Sequence of DMPK (human) (Q09013 whole entry, looked up): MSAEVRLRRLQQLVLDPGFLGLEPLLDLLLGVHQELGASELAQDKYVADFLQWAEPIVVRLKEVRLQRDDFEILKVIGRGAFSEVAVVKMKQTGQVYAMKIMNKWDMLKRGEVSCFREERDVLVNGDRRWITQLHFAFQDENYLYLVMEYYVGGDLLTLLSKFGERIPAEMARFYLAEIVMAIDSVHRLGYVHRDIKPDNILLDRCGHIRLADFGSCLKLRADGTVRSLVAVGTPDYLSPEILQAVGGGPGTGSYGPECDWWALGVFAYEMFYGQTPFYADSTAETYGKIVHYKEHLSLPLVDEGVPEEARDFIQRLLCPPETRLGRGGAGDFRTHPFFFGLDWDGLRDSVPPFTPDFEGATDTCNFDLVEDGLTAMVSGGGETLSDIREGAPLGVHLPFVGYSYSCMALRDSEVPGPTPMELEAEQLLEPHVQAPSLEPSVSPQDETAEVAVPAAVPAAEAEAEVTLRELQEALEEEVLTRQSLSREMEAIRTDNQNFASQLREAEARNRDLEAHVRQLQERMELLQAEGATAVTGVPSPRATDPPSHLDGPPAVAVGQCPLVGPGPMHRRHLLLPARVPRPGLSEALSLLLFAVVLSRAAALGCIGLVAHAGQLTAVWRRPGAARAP
Sequence of INSRR (human) (P14616 whole entry, looked up): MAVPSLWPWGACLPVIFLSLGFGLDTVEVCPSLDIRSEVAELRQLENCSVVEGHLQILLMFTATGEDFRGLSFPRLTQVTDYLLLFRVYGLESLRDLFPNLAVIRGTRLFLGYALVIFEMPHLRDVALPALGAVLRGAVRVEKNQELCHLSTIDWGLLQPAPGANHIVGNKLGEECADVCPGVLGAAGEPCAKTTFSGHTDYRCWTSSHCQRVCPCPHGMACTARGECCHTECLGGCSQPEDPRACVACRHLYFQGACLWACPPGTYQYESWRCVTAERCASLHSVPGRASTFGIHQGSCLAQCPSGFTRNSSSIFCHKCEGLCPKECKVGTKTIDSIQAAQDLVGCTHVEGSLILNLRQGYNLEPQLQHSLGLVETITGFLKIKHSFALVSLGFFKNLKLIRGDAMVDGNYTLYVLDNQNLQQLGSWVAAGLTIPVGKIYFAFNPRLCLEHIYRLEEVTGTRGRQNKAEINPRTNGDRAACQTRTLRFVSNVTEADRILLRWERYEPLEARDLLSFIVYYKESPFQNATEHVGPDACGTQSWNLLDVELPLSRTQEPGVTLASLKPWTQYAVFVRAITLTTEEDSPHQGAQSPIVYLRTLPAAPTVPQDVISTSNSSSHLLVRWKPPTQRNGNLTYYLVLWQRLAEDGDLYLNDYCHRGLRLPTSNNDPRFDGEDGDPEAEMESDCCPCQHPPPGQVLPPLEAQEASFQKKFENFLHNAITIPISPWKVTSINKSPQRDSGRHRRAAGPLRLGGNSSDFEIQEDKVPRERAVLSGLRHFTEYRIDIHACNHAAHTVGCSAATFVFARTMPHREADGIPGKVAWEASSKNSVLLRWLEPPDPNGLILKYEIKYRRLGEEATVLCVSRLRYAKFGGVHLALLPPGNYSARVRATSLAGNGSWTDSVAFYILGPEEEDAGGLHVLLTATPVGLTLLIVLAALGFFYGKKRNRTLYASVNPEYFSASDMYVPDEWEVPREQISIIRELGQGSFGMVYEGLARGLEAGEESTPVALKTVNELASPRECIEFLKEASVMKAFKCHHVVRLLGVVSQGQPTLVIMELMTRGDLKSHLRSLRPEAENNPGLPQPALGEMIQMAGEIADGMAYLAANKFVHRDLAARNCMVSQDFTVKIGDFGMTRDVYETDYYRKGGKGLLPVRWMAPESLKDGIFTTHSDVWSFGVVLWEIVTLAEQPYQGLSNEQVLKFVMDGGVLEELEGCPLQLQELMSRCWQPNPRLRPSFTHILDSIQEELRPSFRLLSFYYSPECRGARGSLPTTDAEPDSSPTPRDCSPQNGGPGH
Sequence of IGF1R (human) (P08069 whole entry, looked up): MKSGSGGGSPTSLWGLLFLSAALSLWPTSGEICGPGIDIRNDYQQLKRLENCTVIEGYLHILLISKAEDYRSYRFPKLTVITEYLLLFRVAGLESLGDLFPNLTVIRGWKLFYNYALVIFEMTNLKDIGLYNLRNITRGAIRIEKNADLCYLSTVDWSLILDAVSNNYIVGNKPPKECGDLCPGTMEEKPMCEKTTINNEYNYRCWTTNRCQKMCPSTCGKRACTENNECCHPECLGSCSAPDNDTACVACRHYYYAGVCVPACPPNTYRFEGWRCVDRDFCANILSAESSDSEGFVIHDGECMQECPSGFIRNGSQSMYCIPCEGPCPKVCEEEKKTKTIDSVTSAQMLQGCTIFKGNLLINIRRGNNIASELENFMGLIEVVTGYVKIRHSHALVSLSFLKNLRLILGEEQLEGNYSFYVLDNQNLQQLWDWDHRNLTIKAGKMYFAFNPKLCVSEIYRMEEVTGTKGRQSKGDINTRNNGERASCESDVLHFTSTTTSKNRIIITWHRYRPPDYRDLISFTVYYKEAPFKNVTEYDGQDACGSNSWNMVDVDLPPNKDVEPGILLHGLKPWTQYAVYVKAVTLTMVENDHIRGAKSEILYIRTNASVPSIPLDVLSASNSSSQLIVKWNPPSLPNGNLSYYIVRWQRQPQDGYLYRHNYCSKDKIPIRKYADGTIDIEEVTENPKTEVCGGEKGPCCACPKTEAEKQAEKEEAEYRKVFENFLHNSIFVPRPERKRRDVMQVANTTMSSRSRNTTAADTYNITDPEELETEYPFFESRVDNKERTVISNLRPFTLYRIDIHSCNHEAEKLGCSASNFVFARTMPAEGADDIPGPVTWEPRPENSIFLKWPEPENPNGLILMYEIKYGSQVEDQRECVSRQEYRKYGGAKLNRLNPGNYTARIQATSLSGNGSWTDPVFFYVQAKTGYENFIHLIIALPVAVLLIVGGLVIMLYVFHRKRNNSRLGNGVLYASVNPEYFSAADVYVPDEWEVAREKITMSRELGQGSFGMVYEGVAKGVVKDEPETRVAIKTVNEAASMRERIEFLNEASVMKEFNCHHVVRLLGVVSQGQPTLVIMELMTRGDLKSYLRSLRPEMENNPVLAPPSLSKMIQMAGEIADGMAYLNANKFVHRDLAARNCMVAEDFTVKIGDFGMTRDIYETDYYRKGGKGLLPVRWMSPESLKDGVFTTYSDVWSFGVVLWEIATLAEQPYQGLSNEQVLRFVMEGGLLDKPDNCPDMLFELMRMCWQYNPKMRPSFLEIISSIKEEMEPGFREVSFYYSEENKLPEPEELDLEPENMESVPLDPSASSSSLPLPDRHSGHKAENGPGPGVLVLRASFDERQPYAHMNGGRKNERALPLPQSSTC
Sequence of GRK5 (human) (P34947 whole entry, looked up): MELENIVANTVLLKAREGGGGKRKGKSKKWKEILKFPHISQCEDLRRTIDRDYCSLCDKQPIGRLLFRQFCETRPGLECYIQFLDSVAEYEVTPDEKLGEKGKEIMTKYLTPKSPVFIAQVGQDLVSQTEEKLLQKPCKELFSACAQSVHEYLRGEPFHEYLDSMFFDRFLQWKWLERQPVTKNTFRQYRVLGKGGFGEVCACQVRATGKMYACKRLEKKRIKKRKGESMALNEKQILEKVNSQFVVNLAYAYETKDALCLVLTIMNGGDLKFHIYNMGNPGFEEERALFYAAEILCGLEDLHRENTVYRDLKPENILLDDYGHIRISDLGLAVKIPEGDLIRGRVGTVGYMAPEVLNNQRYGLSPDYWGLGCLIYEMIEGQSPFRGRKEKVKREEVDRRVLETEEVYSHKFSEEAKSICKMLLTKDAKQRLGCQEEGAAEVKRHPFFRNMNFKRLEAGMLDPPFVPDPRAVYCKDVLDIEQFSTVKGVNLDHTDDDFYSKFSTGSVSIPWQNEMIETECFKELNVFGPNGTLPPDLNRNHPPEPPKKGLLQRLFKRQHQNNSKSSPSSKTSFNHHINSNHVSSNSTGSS

One assay has as its target ABL1 (human) (UniProt P00519). As to the kind of experiment: radiometric filter-binding kinase assay, Kinase HotSpot. The following applies: compound 0.5 µM; ATP 10 µM.
Take `CCN(CC)CCNC(=O)c1c(C)[nH]c(/C=C2\C(=O)Nc3ccc(Cl)cc32)c1C`: the residual activity was 24.7%.
As for `Cc1[nH]c(/C=C2\C(=O)Nc3ccc(S(=O)(=O)N(C)c4cccc(Cl)c4)cc32)c(C)c1C(=O)N1CCN(C)CC1`, the residual activity turned out to be 89.1%.
As to `Nc1ncnc2[nH]nc(Nc3ccc(F)cc3)c12`, the residual activity stood at 88.1%.

A further assay has as its target AURKC (human) (UniProt Q9UQB9). The assay is described as above. The conditions noted are these: compound 0.5 µM; ATP 10 µM.
Regarding `CCN(CC)CCNC(=O)c1c(C)[nH]c(/C=C2\C(=O)Nc3ccc(Cl)cc32)c1C`, the residual activity is 74.7%.
For the compound `Cc1[nH]c(/C=C2\C(=O)Nc3ccc(S(=O)(=O)N(C)c4cccc(Cl)c4)cc32)c(C)c1C(=O)N1CCN(C)CC1`, the residual activity was 37.9%.
As for `Nc1ncnc2[nH]nc(Nc3ccc(F)cc3)c12`, the residual activity turned out to be 96%.

The next assay concerns the target BLK (human) (UniProt P51451). The description is as above. The conditions noted are these: compound 0.5 µM; ATP 10 µM.
For the compound `CCN(CC)CCNC(=O)c1c(C)[nH]c(/C=C2\C(=O)Nc3ccc(Cl)cc32)c1C`, the residual activity was determined as 15.8%.
Regarding `Cc1[nH]c(/C=C2\C(=O)Nc3ccc(S(=O)(=O)N(C)c4cccc(Cl)c4)cc32)c(C)c1C(=O)N1CCN(C)CC1`, the residual activity is 51.7%.
Regarding `Nc1ncnc2[nH]nc(Nc3ccc(F)cc3)c12`, the residual activity stood at 101%.

The target of another assay is BMX (human) (UniProt P51813). The description is as above. The following applies: compound 0.5 µM; ATP 10 µM.
Consider `CCN(CC)CCNC(=O)c1c(C)[nH]c(/C=C2\C(=O)Nc3ccc(Cl)cc32)c1C`, for which the residual activity came to 99.3%.
`Cc1[nH]c(/C=C2\C(=O)Nc3ccc(S(=O)(=O)N(C)c4cccc(Cl)c4)cc32)c(C)c1C(=O)N1CCN(C)CC1`: the residual activity amounted to 97.3%.
Same read-out and setting: in the case of `Nc1ncnc2[nH]nc(Nc3ccc(F)cc3)c12` it was 89.6%.

A further assay addresses BTK (human) (UniProt Q06187). Described as above. The following applies: compound 0.5 µM; ATP 10 µM.
For `CCN(CC)CCNC(=O)c1c(C)[nH]c(/C=C2\C(=O)Nc3ccc(Cl)cc32)c1C`, the residual activity was found to be 58.3%.
As for `Cc1[nH]c(/C=C2\C(=O)Nc3ccc(S(=O)(=O)N(C)c4cccc(Cl)c4)cc32)c(C)c1C(=O)N1CCN(C)CC1`, the residual activity was found to be 93.1%.
Still for that read-out and setting: in the case of `Nc1ncnc2[nH]nc(Nc3ccc(F)cc3)c12` it was 82.3%.

The target in the next assay is CDK1 CCNB1 (human) (UniProt P06493+P14635). Described as above. The conditions noted are these: compound 0.5 µM; ATP 10 µM.
In the case of `CCN(CC)CCNC(=O)c1c(C)[nH]c(/C=C2\C(=O)Nc3ccc(Cl)cc32)c1C`, the residual activity came out at 109%.
As to `Cc1[nH]c(/C=C2\C(=O)Nc3ccc(S(=O)(=O)N(C)c4cccc(Cl)c4)cc32)c(C)c1C(=O)N1CCN(C)CC1`, the residual activity was 101%.
On the same count and under the same terms, the figure for `Nc1ncnc2[nH]nc(Nc3ccc(F)cc3)c12` is 90.7%.

A further assay deals with CDK3 CCNE1 (human) (UniProt Q00526+P24864). The assay is described as above. The conditions noted are these: compound 0.5 µM; ATP 10 µM.
Turning to `CCN(CC)CCNC(=O)c1c(C)[nH]c(/C=C2\C(=O)Nc3ccc(Cl)cc32)c1C`, the residual activity worked out at 88.3%.
On the same count and under the same terms, in the case of `Cc1[nH]c(/C=C2\C(=O)Nc3ccc(S(=O)(=O)N(C)c4cccc(Cl)c4)cc32)c(C)c1C(=O)N1CCN(C)CC1` it was 89.4%.
In the case of `Nc1ncnc2[nH]nc(Nc3ccc(F)cc3)c12`, the residual activity turned out to be 104%.

Another assay has as its target CDK7 CCNH MNAT1 (human) (UniProt P50613+P51948+P51946). The description is as above. The conditions noted are these: compound 0.5 µM; ATP 10 µM.
As for `CCN(CC)CCNC(=O)c1c(C)[nH]c(/C=C2\C(=O)Nc3ccc(Cl)cc32)c1C`, the residual activity was determined as 72.8%.
Take `Cc1[nH]c(/C=C2\C(=O)Nc3ccc(S(=O)(=O)N(C)c4cccc(Cl)c4)cc32)c(C)c1C(=O)N1CCN(C)CC1`: the residual activity came to 59.7%.
For the compound `Nc1ncnc2[nH]nc(Nc3ccc(F)cc3)c12`, the residual activity is 98.4%.

Another assay concerns the target CSNK1G2 (human) (UniProt P78368). Described as above. The conditions noted are these: compound 0.5 µM; ATP 10 µM.
Turning to `CCN(CC)CCNC(=O)c1c(C)[nH]c(/C=C2\C(=O)Nc3ccc(Cl)cc32)c1C`, the residual activity worked out at 45.2%.
Take `Cc1[nH]c(/C=C2\C(=O)Nc3ccc(S(=O)(=O)N(C)c4cccc(Cl)c4)cc32)c(C)c1C(=O)N1CCN(C)CC1`: the residual activity was found to be 99.7%.
`Nc1ncnc2[nH]nc(Nc3ccc(F)cc3)c12`: the residual activity was determined as 95.7%.

A further assay deals with CSNK1G3 (human) (UniProt Q9Y6M4). The assay is described as above. The conditions noted are these: compound 0.5 µM; ATP 10 µM.
Take `CCN(CC)CCNC(=O)c1c(C)[nH]c(/C=C2\C(=O)Nc3ccc(Cl)cc32)c1C`: the residual activity stood at 47.7%.
With `Cc1[nH]c(/C=C2\C(=O)Nc3ccc(S(=O)(=O)N(C)c4cccc(Cl)c4)cc32)c(C)c1C(=O)N1CCN(C)CC1`, the residual activity came out at 93.3%.
The same measure, in the same setting: the figure for `Nc1ncnc2[nH]nc(Nc3ccc(F)cc3)c12` is 97.9%.

The next assay concerns the target DMPK (human) (UniProt Q09013). The description is as above. The conditions noted are these: compound 0.5 µM; ATP 10 µM.
For `CCN(CC)CCNC(=O)c1c(C)[nH]c(/C=C2\C(=O)Nc3ccc(Cl)cc32)c1C`, the residual activity is 102%.
On the same count and under the same terms, in the case of `Cc1[nH]c(/C=C2\C(=O)Nc3ccc(S(=O)(=O)N(C)c4cccc(Cl)c4)cc32)c(C)c1C(=O)N1CCN(C)CC1` it was 113%; in that of `Nc1ncnc2[nH]nc(Nc3ccc(F)cc3)c12`, 114%.

The target in a further assay is DYRK1A (human) (UniProt Q13627). Described as above. The following applies: compound 0.5 µM; ATP 10 µM.
For `CCN(CC)CCNC(=O)c1c(C)[nH]c(/C=C2\C(=O)Nc3ccc(Cl)cc32)c1C`, the residual activity turned out to be 47.2%.
For `Cc1[nH]c(/C=C2\C(=O)Nc3ccc(S(=O)(=O)N(C)c4cccc(Cl)c4)cc32)c(C)c1C(=O)N1CCN(C)CC1`, the residual activity was 94.1%.
On the same count and under the same terms, the figure for `Nc1ncnc2[nH]nc(Nc3ccc(F)cc3)c12` is 86.4%.

In a further assay the target is DYRK4 (human) (UniProt Q9NR20). The description is as above. The following applies: compound 0.5 µM; ATP 10 µM.
Sequence of DYRK4 (human) (Q9NR20 whole entry, looked up): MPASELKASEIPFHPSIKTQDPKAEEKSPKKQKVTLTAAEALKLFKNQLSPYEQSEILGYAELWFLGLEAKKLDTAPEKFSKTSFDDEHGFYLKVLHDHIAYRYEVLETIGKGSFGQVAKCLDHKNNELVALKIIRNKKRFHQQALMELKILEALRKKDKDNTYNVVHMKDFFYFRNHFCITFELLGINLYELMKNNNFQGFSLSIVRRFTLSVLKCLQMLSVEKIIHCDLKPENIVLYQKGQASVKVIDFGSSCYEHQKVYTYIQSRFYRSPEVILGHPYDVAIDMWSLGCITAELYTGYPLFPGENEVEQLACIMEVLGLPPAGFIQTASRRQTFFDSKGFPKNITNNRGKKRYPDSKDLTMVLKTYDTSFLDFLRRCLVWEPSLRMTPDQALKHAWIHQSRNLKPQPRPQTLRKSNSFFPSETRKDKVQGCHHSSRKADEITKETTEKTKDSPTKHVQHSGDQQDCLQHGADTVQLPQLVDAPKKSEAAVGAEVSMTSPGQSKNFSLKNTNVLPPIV
As for `CCN(CC)CCNC(=O)c1c(C)[nH]c(/C=C2\C(=O)Nc3ccc(Cl)cc32)c1C`, the residual activity came out at 97.9%.
On the same count and under the same terms, in the case of `Cc1[nH]c(/C=C2\C(=O)Nc3ccc(S(=O)(=O)N(C)c4cccc(Cl)c4)cc32)c(C)c1C(=O)N1CCN(C)CC1` it was 96.1%; in that of `Nc1ncnc2[nH]nc(Nc3ccc(F)cc3)c12`, 104%.

The target in a further assay is EPHA1 (human) (UniProt P21709). The assay is described as above. The conditions noted are these: compound 0.5 µM; ATP 10 µM.
On to `CCN(CC)CCNC(=O)c1c(C)[nH]c(/C=C2\C(=O)Nc3ccc(Cl)cc32)c1C`, for which the residual activity came to 89.4%.
On the same count and under the same terms, the figure for `Cc1[nH]c(/C=C2\C(=O)Nc3ccc(S(=O)(=O)N(C)c4cccc(Cl)c4)cc32)c(C)c1C(=O)N1CCN(C)CC1` is 108%.
On to `Nc1ncnc2[nH]nc(Nc3ccc(F)cc3)c12`, for which the residual activity was 101%.

A further assay has as its target FES (human) (UniProt P07332). The description is as above. The conditions noted are these: compound 0.5 µM; ATP 10 µM.
Consider `CCN(CC)CCNC(=O)c1c(C)[nH]c(/C=C2\C(=O)Nc3ccc(Cl)cc32)c1C`, for which the residual activity was determined as 22.1%.
For `Cc1[nH]c(/C=C2\C(=O)Nc3ccc(S(=O)(=O)N(C)c4cccc(Cl)c4)cc32)c(C)c1C(=O)N1CCN(C)CC1`, the residual activity turned out to be 96%.
On the same count and under the same terms, in the case of `Nc1ncnc2[nH]nc(Nc3ccc(F)cc3)c12` it was 100%.

A further assay addresses FLT1 (human) (UniProt P17948). Described as above. The following applies: compound 0.5 µM; ATP 10 µM.
In the case of `CCN(CC)CCNC(=O)c1c(C)[nH]c(/C=C2\C(=O)Nc3ccc(Cl)cc32)c1C`, the residual activity amounted to 34.4%.
As to `Cc1[nH]c(/C=C2\C(=O)Nc3ccc(S(=O)(=O)N(C)c4cccc(Cl)c4)cc32)c(C)c1C(=O)N1CCN(C)CC1`, the residual activity amounted to 74.7%.
On the same count and under the same terms, the figure for `Nc1ncnc2[nH]nc(Nc3ccc(F)cc3)c12` is 87.3%.

A further assay addresses GRK5 (human) (UniProt P34947). The description is as above. The following applies: compound 0.5 µM; ATP 10 µM.
As to `CCN(CC)CCNC(=O)c1c(C)[nH]c(/C=C2\C(=O)Nc3ccc(Cl)cc32)c1C`, the residual activity was determined as 82.7%.
On the same count and under the same terms, the figure for `Cc1[nH]c(/C=C2\C(=O)Nc3ccc(S(=O)(=O)N(C)c4cccc(Cl)c4)cc32)c(C)c1C(=O)N1CCN(C)CC1` is 98.9%.
For `Nc1ncnc2[nH]nc(Nc3ccc(F)cc3)c12`, the residual activity is 97.1%.

The target of another assay is GRK6 (human) (UniProt P43250). Described as above. The conditions noted are these: compound 0.5 µM; ATP 10 µM.
Sequence of GRK6 (human) (P43250 whole entry, looked up): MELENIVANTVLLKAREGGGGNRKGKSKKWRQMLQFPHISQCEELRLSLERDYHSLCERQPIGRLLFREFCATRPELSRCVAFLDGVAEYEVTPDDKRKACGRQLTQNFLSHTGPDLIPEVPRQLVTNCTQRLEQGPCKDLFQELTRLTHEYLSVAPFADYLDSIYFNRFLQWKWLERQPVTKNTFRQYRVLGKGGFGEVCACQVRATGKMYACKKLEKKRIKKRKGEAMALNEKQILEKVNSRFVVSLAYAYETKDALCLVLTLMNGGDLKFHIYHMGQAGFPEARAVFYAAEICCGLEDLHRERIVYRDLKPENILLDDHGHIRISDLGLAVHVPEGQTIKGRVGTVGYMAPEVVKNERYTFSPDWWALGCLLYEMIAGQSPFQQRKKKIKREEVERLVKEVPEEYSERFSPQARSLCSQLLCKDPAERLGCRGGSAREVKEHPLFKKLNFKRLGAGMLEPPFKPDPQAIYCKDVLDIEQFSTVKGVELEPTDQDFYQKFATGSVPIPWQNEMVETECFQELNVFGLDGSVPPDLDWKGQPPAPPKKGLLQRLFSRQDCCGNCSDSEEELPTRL
For `CCN(CC)CCNC(=O)c1c(C)[nH]c(/C=C2\C(=O)Nc3ccc(Cl)cc32)c1C`, the residual activity came to 46.3%.
The same measure, in the same setting: in the case of `Cc1[nH]c(/C=C2\C(=O)Nc3ccc(S(=O)(=O)N(C)c4cccc(Cl)c4)cc32)c(C)c1C(=O)N1CCN(C)CC1` it was 89.7%; in that of `Nc1ncnc2[nH]nc(Nc3ccc(F)cc3)c12`, 103%.

A further assay concerns the target IGF1R (human) (UniProt P08069). The description is as above. The following applies: compound 0.5 µM; ATP 10 µM.
As to `CCN(CC)CCNC(=O)c1c(C)[nH]c(/C=C2\C(=O)Nc3ccc(Cl)cc32)c1C`, the residual activity was determined as 35.2%.
With `Cc1[nH]c(/C=C2\C(=O)Nc3ccc(S(=O)(=O)N(C)c4cccc(Cl)c4)cc32)c(C)c1C(=O)N1CCN(C)CC1`, the residual activity worked out at 103%.
On to `Nc1ncnc2[nH]nc(Nc3ccc(F)cc3)c12`, for which the residual activity amounted to 104%.

The next assay addresses INSRR (human) (UniProt P14616). Described as above. The following applies: compound 0.5 µM; ATP 10 µM.
Turning to `CCN(CC)CCNC(=O)c1c(C)[nH]c(/C=C2\C(=O)Nc3ccc(Cl)cc32)c1C`, the residual activity is 4.33%.
As to `Cc1[nH]c(/C=C2\C(=O)Nc3ccc(S(=O)(=O)N(C)c4cccc(Cl)c4)cc32)c(C)c1C(=O)N1CCN(C)CC1`, the residual activity was determined as 93%.
Regarding `Nc1ncnc2[nH]nc(Nc3ccc(F)cc3)c12`, the residual activity came to 96.9%.

A further assay addresses KDR (human) (UniProt P35968). The description is as above. The conditions noted are these: compound 0.5 µM; ATP 10 µM.
For the compound `CCN(CC)CCNC(=O)c1c(C)[nH]c(/C=C2\C(=O)Nc3ccc(Cl)cc32)c1C`, the residual activity worked out at 13.8%.
With `Cc1[nH]c(/C=C2\C(=O)Nc3ccc(S(=O)(=O)N(C)c4cccc(Cl)c4)cc32)c(C)c1C(=O)N1CCN(C)CC1`, the residual activity worked out at 79.4%.
As to `Nc1ncnc2[nH]nc(Nc3ccc(F)cc3)c12`, the residual activity worked out at 104%.

What is called residual activity is the signal under treatment as a percentage of the control signal.
